# Assay results: patent US20250170101A1, “MONOACYLGLYCEROL LIPASE INHIBITORS AND USE THEREOF FOR THE TREATMENT AND MANAGEMENT OF PAIN AND RELATED CONDITIONS” (Psy Therapeutics, Inc., priority 2021, published 2025)
# Like-named read-outs stand apart in the source and are kept apart here.
# Columns and labels:
# Assay type in all cases: biochemical
# MAGL enzyme = target: T1, MAGL enzyme (Homo sapiens, UniProt Q99685); assay: MAGL reversible inhibition assay (washout), Example 22; set-up: % MAGL activity returning after washout: concentration or dose not given beside the values
# T1 sequence (Q99685 1-303): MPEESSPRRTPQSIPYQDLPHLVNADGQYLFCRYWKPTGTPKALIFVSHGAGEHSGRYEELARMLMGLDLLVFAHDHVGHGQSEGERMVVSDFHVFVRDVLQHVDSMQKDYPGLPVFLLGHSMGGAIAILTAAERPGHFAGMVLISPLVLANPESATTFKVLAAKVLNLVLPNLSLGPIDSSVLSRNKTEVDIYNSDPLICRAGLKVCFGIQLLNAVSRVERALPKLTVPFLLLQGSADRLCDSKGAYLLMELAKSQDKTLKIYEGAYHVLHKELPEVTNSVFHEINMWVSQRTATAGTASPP
# Protocol: The reversible mechanism of MAGL inhibition of a test compound of Formula (I) can be determined. Flag-tagged MAGL enzyme will be immobilized on anti-Flag beads. Immobilized enzyme will be incubated+/−inhibitor at a dose that produces complete inhibition. Colorimetric substrate (4-NPA) will be added and the reaction monitored on a plate reader for 30 minutes to verify complete inhibition. Immobilized enzyme will then be washed thoroughly to remove the inhibitor, and fresh substrate will be added. The reaction will be monitored for an additional 30 minutes; returning enzymatic activity will indicate reversibility of inhibition. […]
# For some test compounds, % activity returning after washout may be less than 100%/if complete compound unbinding takes longer than 30 minutes.
# human recombinant FAAH = target: T2, human recombinant FAAH (Homo sapiens, UniProt O00519); assay: FAAH counter screen (Cayman FAAH Inhibitor Screening Assay Kit), Example 21; conditions: Method A: starting concentration of 100 μM
# T2 construct: purchased Cayman kit Item No. 10005196; FAAH enzyme 700302
# T2 sequence (O00519 1-579): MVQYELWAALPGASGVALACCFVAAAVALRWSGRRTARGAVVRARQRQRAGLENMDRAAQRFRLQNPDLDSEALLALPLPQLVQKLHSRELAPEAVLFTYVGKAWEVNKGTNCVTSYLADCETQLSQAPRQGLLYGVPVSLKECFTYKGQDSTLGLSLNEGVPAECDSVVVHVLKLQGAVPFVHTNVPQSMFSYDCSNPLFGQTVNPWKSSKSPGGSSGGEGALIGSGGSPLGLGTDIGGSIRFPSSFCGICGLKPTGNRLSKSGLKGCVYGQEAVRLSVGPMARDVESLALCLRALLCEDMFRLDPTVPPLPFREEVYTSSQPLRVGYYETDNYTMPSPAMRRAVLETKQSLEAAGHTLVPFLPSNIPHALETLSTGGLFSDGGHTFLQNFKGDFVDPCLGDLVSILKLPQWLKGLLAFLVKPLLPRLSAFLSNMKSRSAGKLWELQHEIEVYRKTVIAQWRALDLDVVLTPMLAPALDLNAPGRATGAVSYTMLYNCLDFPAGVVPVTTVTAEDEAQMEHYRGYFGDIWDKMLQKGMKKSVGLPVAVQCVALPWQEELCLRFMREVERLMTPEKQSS
# Protocol: Comparative compound potency at FAAH can be obtained with the following assay.
# MAGL inhibitor compounds were also counter-screened for FAAH inhibition potency using the following assay. Assessment of FAAH inhibition was performed using Fatty Acid Amide Hydrolase Inhibitor Screening Assay Kit (Cayman Item No. 10005196) following manufacture's instruction with some modifications. The kit utilizes human recombinant FAAH and the fluorescent substrate, AMC Arachidonoyl amide (AAMCA). 5 μL of assay buffer (125 mM Tris, pH 9.0, 1 mM EDTA, i.e. ethylenediaminetetraacetic acid) was added to a 384-well black plate (Corning, 3573). Test compounds and control inhibitor JZL-195 (Cayman Chemical, 13668) were tested in 10-concentration IC50 mode with 3-fold serial dilution at a starting concentration of 100 μM and 10 μM, respectively. 300 nL or 30 nL of test compounds were delivered into a 384-well black plate (Corning, 3573) using a Labcyte Echo, followed by addition of 15 μL of FAAH enzyme (Cayman, 700302) in assay buffer. After a 5-minute pre-incubation at room temperature, 10 μL of AAMCA was added in assay buffer to start the reaction. Final concentration of FAAH enzyme is not specified and AAMCA substrate was used at the 20 uM. After these dilutions, the final concentration of the test compounds ranged from 100 μM to 5.08 nM or 10 μM down to 0.508 nM. The reaction was allowed to progress for 60 minutes, while the plate was read on an Envision plate reader at an Ex/Em of 350/460 nm with readings every minute. The data was analyzed in Microsoft Excel, using the slope between 30 and 59 minutes. The average of the no-enzyme wells (background) was subtracted from the data. The background-subtracted slope data was converted to % activity using the average of wells with enzyme and DMSO vehicle. IC50 values were calculated using GraphPad software (Sigmoidal dose response, variable slope equation).
# Compounds listed in Table D2 were tested in the FAAH Counterscreen of Example 21
# human MAGL = target: T3, human MAGL (Homo sapiens, UniProt Q99685); assay: MAGL inhibition potency (IC50) with 4NPA substrate, Example 20, methods of Table C
# T3 construct: recombinant MAGL enzyme (aa 2-303 RBC, internal preparation)
# T3 sequence (Q99685 2-303): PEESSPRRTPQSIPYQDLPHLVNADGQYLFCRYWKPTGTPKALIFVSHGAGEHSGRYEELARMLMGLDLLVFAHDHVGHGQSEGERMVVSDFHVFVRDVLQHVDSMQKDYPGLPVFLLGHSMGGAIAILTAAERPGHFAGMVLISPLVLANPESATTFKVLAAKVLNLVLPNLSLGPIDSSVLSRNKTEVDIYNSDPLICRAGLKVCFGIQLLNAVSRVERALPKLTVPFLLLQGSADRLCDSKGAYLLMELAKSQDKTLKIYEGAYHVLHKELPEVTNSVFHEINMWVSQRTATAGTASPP
# Excerpt: Cayman's Monoacylglycerol Lipase Inhibitor Screening Assay provides a method for screening human MAGL inhibitors. MAGL hydrolyzes 4-nitrophenylacetate resulting in a yellow product, 4-nitrophenol, with an absorbance of 405-412 nm. The monoacylglycerol lipase inhibitor screening assay kit from Cayman Chemical was used to measure the MAGL potency for the compounds in Table 4 and Table 5. Cayman's Monoacylglycerol Lipase Inhibitor Screening Assay provides a method for screening human MAGL inhibitors. MAGL hydrolyzes 4-nitrophenylacetate resulting in a yellow product, 4-nitrophenol, with an absorbance of 405-412 nm. MAGL Inhibition was measured by the following assay. Monoacylglycerol Lipase (MAGL) inhibition was measured using recombinant MAGL enzyme (aa 2-303 RBC, internal preparation) and the substrate 4-Nitrophenyl acetate (4NPA) (Sigma-Aldrich, N8130). Hydrolysis of the substrate in the presence of the enzyme was measured by absorbance at 405 nm. 10 μL of assay buffer (10 mM Tris pH 7.5, 1 mM EDTA, 0.9% DMSO) was added to a black 384-well non-binding plate with clear bottom (Greiner, 781906) for each reaction. […] DMSO control wells were included for reference. A 10.8 nM (1.8×) MAGL mix in assay buffer was prepared, with 25 μL added to each reaction well, for a final assay concentration of 6 nM. No enzyme wells received 25 μL of buffer. Plate was incubated at room temperature for 30 minutes. 35 mM solution of 4NPA in methanol was prepared daily. A 4.5×4NPA substrate solution was prepared in assay buffer and 10 μL was added to each reaction well, for a final assay concentration of 0.25 mM. Plate was spun for 1 minute at 1000 rpm before measuring absorbance using a CLARIOstar plate reader (BMG Labtech). A kinetic reading at 405 nm was done every minute for 30 minutes. Data was analyzed using the linear slope of the reaction progress curve and the average of the no-enzyme wells (background) was subtracted from the data. The background-subtracted slope data was converted to % activity using the average of wells with enzyme and DMSO vehicle. IC50s were calculated using GraphPad software (Sigmoidal dose response, variable slope equation). […] Table 6 is a table of potency measurements of MAGL inhibition measured for other compounds using the Potency Assay of Example 20 above, with the following modifications described in Table C. [table]
# [1] = Method 2: MAGL (10 nM) Cayman Chemical Enzyme
# [2] = Method 14: Enzyme Conc "0", Source "0", Reaction Biology prep, 6 nM
# [3] = Method 6: Enzyme Conc 6, Reaction Biology (6 nM)
# [4] = Method 12: Enzyme Conc 15, Reaction Biology (15 nM)
compound,measurement,setting,value
"Cc1cnn(C2CC3(C2)CN(C(=O)c2cc(O)ccc2F)C3)c1-c1cc(F)ccc1Cl (single isomer, unassigned) [Compound 519, {6-[5-(2-chloro-5-fluorophenyl)-4-methyl-1-pyrazolyl]-2-aza-2-spiro[3.3]heptyl}(2-fluoro-5-hydroxyphenyl)methanone]",degree to which MAGL enzymatic activity returned following washout of test compounds,MAGL enzyme; pre-washout compound concentration 1 μM,155
same,% MAGL activity returning after washout,"MAGL enzyme; relative to control (no inhibitor before washout), immediately following 30 minute washout",>50%
Cc1ccccc1-n1nc(C2CC3(C2)CN(C(=O)c2cc(O)ccc2F)C3)cc1C [Compound 117],IC50,human recombinant FAAH,> 10 µM
"Cc1cc(C2CC3(C2)CN(C(=O)c2ccccc2F)C3)n(-c2ccccc2C)n1 [Compound 122, (2-fluorophenyl)(6-(3-methyl-1-(o-tolyl)-1H-pyrazol-5-yl)-2-azaspiro[3.3]heptan-2-yl)methanone]",IC50,human recombinant FAAH,> 10 µM
"COc1ccc(F)c(C(=O)N2CC3(CC(c4cc(C)nn4-c4ccccc4C)C3)C2)c1 [Compound 123, (2-fluoro-5-methoxyphenyl)(6-(3-methyl-1-(o-tolyl)-1H-pyrazol-5-y1)-2-azaspiro[3.3]heptan-2-yl)methanone]",IC50,human recombinant FAAH,> 10 µM
"Cc1cc(C2CC3(C2)CN(C(=O)c2cccc(O)c2)C3)n(-c2ccccc2C)n1 [Compound 125, (3-hydroxyphenyl)(6-(3-methyl-1-(o-tolyl)-1H-pyrazol-5-y1)-2-azaspiro[3.3]heptan-2-yl)methanone]",IC50,human recombinant FAAH,> 10 µM
"Cc1cc(C2CC3(C2)CN(C(=O)c2c(F)ccc(O)c2F)C3)n(-c2ccccc2C)n1 [Compound 127, (2,6-difluoro-3-hydroxyphenyl)(6-(3-methyl-1-(o-tolyl)-1H-pyrazol-5-yl)-2-azaspiro[3.3]heptan-2-yl)methanone]",IC50,human recombinant FAAH,> 10 µM
COc1cc(F)ccc1CN1CC2(CC(c3cc(C)nn3-c3ccccc3C)C2)C1 [Compound 149],IC50,human MAGL; [1],> 10 µM
"Cc1cc(C2CC3(C2)CN(Cc2cc(O)ccc2F)C3)n(-c2ccccc2C)n1 [Compound 150, 4-fluoro-3-((6-(3-methyl-1-(o-tolyl)-1H-pyrazol-5-yl)-2-azaspiro [3.3]heptan-2-yl)methyl)phenol]",IC50,human MAGL,> 10 µM
COC(c1cccn1C)N1CC2(CC(c3cc(C)nn3-c3ccccc3C)C2)C1 (stereo not shown) [Compound 181],IC50,human MAGL; [1],> 10 µM
COC(c1ccn(C)c1)N1CC2(CC(c3cc(C)nn3-c3ccccc3C)C2)C1 (stereo not shown) [Compound 182],IC50,human MAGL; [1],> 10 µM
CCOc1cc(F)ccc1C(=O)N1CC2(CC(C(=O)N(C)c3cccnc3C)C2)C1 [Compound 198],IC50,human MAGL; Method 4: MAGL (15 nM) Cayman Chemical Enzyme,> 10 µM
Cc1cc(C2CC3(C2)CN(C(=O)c2cc4c(cc2F)CCO4)C3)n(-c2ccccc2C)n1 [Compound 368],IC50,human MAGL; [2],> 10 µM
O=C(c1cc(O)ccc1F)N1CC2(CC(C(=O)N3CCOCC3)C2)C1 [Compound 384],IC50,human MAGL; [2],> 10 µM
O=C(c1cc(O)ccc1F)N1CC2(CC(C(=O)N3CCCC3)C2)C1 [Compound 388],IC50,human MAGL; [2],> 10 µM
O=C(c1cc(O)ccc1F)N1CC2(CC(C(=O)N3CCC4(COC4)C3)C2)C1 [Compound 391],IC50,human MAGL; [2],> 10 µM
O=C(NCC1COC1)C1CC2(C1)CN(C(=O)c1cc(O)ccc1F)C2 [Compound 395],IC50,human MAGL; [2],> 10 µM
Cc1cc(C2CC3(C2)CN(C(=O)c2ccc4c(c2)OCC4)C3)n(-c2ccccc2C)n1 [Compound 402],IC50,human MAGL; [2],> 10 µM
Cc1cc(C2CC3(C2)CN(C(=O)c2cccc4c2CCO4)C3)n(-c2ccccc2C)n1 [Compound 403],IC50,human MAGL; [2],> 10 µM
Cc1cnn(C2CC3(C2)CN(C(=O)c2cc(O)ccc2F)C3)c1-c1ccccc1Cl [Compound 404],IC50,human MAGL; [3],> 10 µM
Cc1ccccc1-c1ccnn1C1CC2(C1)CN(C(=O)c1cc(O)ccc1F)C2 [Compound 405],IC50,human MAGL; [3],> 10 µM
Cc1cc(-c2ccccc2C)n(C2CC3(C2)CN(C(=O)c2cc(O)ccc2F)C3)n1 [Compound 406],IC50,human MAGL; [3],> 10 µM
Cc1cn(C2CC3(C2)CN(C(=O)c2cc(O)ccc2F)C3)nc1-c1ccccc1Cl [Compound 416],IC50,human MAGL; [3],> 10 µM
Cc1ccccc1-c1ccn(C2CC3(C2)CN(C(=O)c2cc(O)ccc2F)C3)n1 [Compound 441],IC50,human MAGL; [3],> 10 µM
Cc1ccccc1-c1cc(C)n(C2CC3(C2)CN(C(=O)c2cc(O)ccc2F)C3)n1 [Compound 442],IC50,human MAGL; [3],> 10 µM
Cc1cnn(C2CC3(C2)CN(C(=O)c2cc(O)ccc2C(F)(F)F)C3)c1-c1ccccc1F [Compound 494],IC50,human MAGL; [4],> 10 µM
Cc1cn(C2CC3(C2)CN(C(=O)c2cc(O)ccc2C(F)(F)F)C3)nc1-c1ccccc1F [Compound 495],IC50,human MAGL; [4],> 10 µM
O=C(c1c(F)cccc1OC1CC1)N1CC2(CC(n3ncc(C(F)(F)F)c3-c3ccccc3F)C2)C1 [Compound 521],IC50,human MAGL; [4],> 10 µM
